Measured values reported in patent EP0320984A2, “1,4-Dihydropyridine derivatives” (FUJIREBIO INC., priority 1987, dated 1989).

Test system: Rabbit platelet rich plasma (PRP)
Assay: Inhibitory activity on platelet aggregation in rabbit platelet rich plasma (light transmission)
Assay type: cell-based
Conditions: added to PRP 30 minutes before agent; for Inhibitory activity on platelet aggregation, PAF: compound 3x10^-6 (unit not given), Platelet activating factor (PAF) 10 mg/ml; for Inhibitory activity on platelet aggregation, ADP / Inhibitory activity on platelet aggregation, AA / Inhibitory activity on platelet aggregation, Collagen: compound 10^-4 (unit not given); for Inhibitory activity on platelet aggregation, ADP: Adenosine diphosphate (ADP) 5 mM; for Inhibitory activity on platelet aggregation, AA: Arachidonic acid (AA) 1 mM; for Inhibitory activity on platelet aggregation, Collagen: aggregating agent collagen
Experimental: 3. Experiment for inhibitory activity on platelet aggregation in rabbit:
Rabbit platelet rich plasma (PRP) was prepared by centrifugation of the citrated blood at 380 g for 10 minutes at 20°C. Test solution (10 µl) was added to PRP (200 µl) 30 minutes before treatment of aggregation agents (10 µl). The extent of aggregation was expressed with the maximum change in light transmission for PRP and platelet poor plasma was taken as a value of 100%

Compound | Inhibitory activity on platelet aggregation, PAF | Inhibitory activity on platelet aggregation, ADP | Inhibitory activity on platelet aggregation, AA | Inhibitory activity on platelet aggregation, Collagen
COC(=O)C1=C(C)NC(C)=C(C(=O)OC/C=C/c2ccc(Cn3ccnc3)cc2)C1c1cccc([N+](=O)[O-])c1 (centres unmarked) [Example 1, (E)-3-{4-(1-imidazolylmethyl)phenyl}-2-propen-1-yl methyl 1,4-dihydro-2,6-dimethyl-4-(3-nitrophenyl)pyridine-3,5-dicarboxylate] | 35.4% | 7.3% | 26.2% | 19.5%
COC(=O)C1=C(C)NC(C)=C(C(=O)OC/C=C/c2ccc(Cc3cccnc3)cc2)C1c1cccc([N+](=O)[O-])c1 (centres unmarked) [Example 2, Methyl (E)-3-{4-(3-pyridylmethyl)phenyl}-2-propen-1-yl 1,4-dihydro-2,6-dimethyl-4-(3-nitrophenyl)pyridine-3,5-dicarboxylate] | 0% | 5.5% | 12.6% | 23.5%
COC(=O)C1=C(C)NC(C)=C(C(=O)OC/C=C/c2ccc(-n3ccnc3)cc2)C1c1cccc([N+](=O)[O-])c1 (centres unmarked) [Example 3, (E)-3-{4-(1-imidazolyl)phenyl}-2-propen-1-yl methyl 1,4-dihydro-2,6-dimethyl-4-(3-nitrophenyl)pylidine-3,5-dicarboxylate] | 0% | 2.2% | 19.3% | 33.2%
COC(=O)C1=C(C)NC(C)=C(C(=O)OC/C=C/c2ccc(Cn3ccnc3)o2)C1c1cccc([N+](=O)[O-])c1 (centres unmarked) [Example 4, (E)-3-{5-(1-imidazolylmethyl)-2-furan}-2-propen-1-yl methyl 1,4-dihydro-2,6-dimethyl-4-(3-nitrophenyl)pyridine-3,5-dicarboxylate] | 95.6% | – | 30.8% | 30.5%
COC(=O)C1=C(C)NC(C)=C(C(=O)OC/C=C/c2ccc(Cn3ccnc3)s2)C1c1cccc([N+](=O)[O-])c1 (centres unmarked) [Example 5, (E)-3-{5-(1-imidazolylmethyl)-2-thiophene}-2-propen-1-yl methyl 1,4-dihydro-2,6-dimethyl-4-(3-nitrophenyl) pyridine-3,5-dicarboxylate] | 100% | 12.0% | 33.4% | 32.3%
COC(=O)C1=C(C)NC(C)=C(C(=O)OC/C=C(\C)c2ccc(Cn3ccnc3)cc2)C1c1cccc([N+](=O)[O-])c1 (centres unmarked) [Example 6] | 0% | 6.5% | 15.6% | 27.2%
CCOC(=O)C1=C(C)NC(C)=C(C(=O)OC/C=C/c2ccc(Cn3ccnc3)cc2)C1c1cccc([N+](=O)[O-])c1 (centres unmarked) [Example 7, Ethyl (E)-3-{4-(1-imidazolylmethyl)phenyl}-2-propen-1-yl 1,4-dihydro-2,6-dimethyl-4-(3-nitrophenyl)pyridine-3,5-dicarboxylate] | 0% | 4.3% | 17.8% | 30.9%
COC(=O)C1=C(C)NC(C)=C(C(=O)OC/C(C)=C/c2ccc(Cn3ccnc3)cc2)C1c1cccc([N+](=O)[O-])c1 (centres unmarked) [Example 8, (E)-3-{4-(1-imidazolylmethyl)phenyl}-2-methyl-2-propen-1-yl methyl 1,4-dihydro-2,6-dimethyl-4-(3-nitro-phenyl)pyridine-3,5-dicarboxylate] | 28.9% | 10.8% | 18.8% | 18.9%
COC(=O)C1=C(C)NC(C)=C(C(=O)OC/C=C/c2ccc(Cn3cnnc3)cc2)C1c1cccc([N+](=O)[O-])c1 (centres unmarked) [Example 9] | 78.8% | 6.5% | 5.9% | 11.1%
COC(=O)C1=C(C)NC(C)=C(C(=O)OC/C=C/c2ccc(Cn3cncn3)cc2)C1c1cccc([N+](=O)[O-])c1 (centres unmarked) [Example 10, Methyl (E)-3-{4-(1,2,4-triazol-1-ylmethyl)phenyl}-2propen-1-yl 1,4-dihydro-2,6-dimethyl-4-(3-nitrophenyl)pyridine-3,5-dicarboxylate] | 24.4% | 2.1% | 5.0% | 5.5%
COC(=O)C1=C(C)NC(C)=C(C(=O)OC/C=C/c2ccc(Cn3cnnn3)cc2)C1c1cccc([N+](=O)[O-])c1 (centres unmarked) [Example 11, Methyl (E)-3-{4-(1,2,3,4-tetrazol-1-ylmethyl)phenyl}-2-propen-1-yl 1,4-dihydro-2,6-dimethyl-4-(3-nitrophenyl)pyridine-3,5-dicarboxylate] | 31.1% | 1.3% | 2.9% | 7.1%
COC(=O)C1=C(C)NC(C)=C(C(=O)OC/C=C/c2ccc(Cn3ccnc3)cc2)C1c1cccc(Cl)c1Cl (centres unmarked) [Example 12, (E)-3-{4-(1-imidazolylmethyl)phenyl}-2-propen-1-yl methyl 1,4-dihydro-2,6-dimethyl-4-(2,3-dichlorophenyl)pyridine-3,5-dicarboxylate] | 51.8% | 7.3% | 11.4% | 10.3%
COC(=O)C1=C(C)NC(C)=C(C(=O)OC/C(F)=C/c2ccc(Cn3ccnc3)cc2)C1c1cccc([N+](=O)[O-])c1 (centres unmarked) [Example 13, (Z)-3-{4-(1-imidazolylmethyl)phenyl}-2-fluoro-2-propen-1-yl methyl 1,4-dihydro-2,6-dimethyl-4-(3-nitrophenyl)pyridine-3,5-dicarboxylate] | 49.6% | 10.9% | 17.4% | 6.3%
CC1=C(C(=O)OC/C=C/c2ccccc2)C(c2cccc([N+](=O)[O-])c2)C(C(=O)OC/C=C/c2ccc(Cn3ccnc3)cc2)=C(C)N1 (centres unmarked) [Example 14, (E)-cinnamyl (E)-3-{4-(1-imidazolylmethyl)phenyl}-2-propen-1-yl 1,4-dihydro-2,6-dimethyl-4-(3-nitrophenyl)pyridine-3,5-dicarboxylate] | 44.7% | 4.3% | 42.0% | 69.6%
COCCOC(=O)C1=C(C)NC(C)=C(C(=O)OC/C=C/c2ccc(Cn3ccnc3)cc2)C1c1cccc([N+](=O)[O-])c1 (centres unmarked) [Example 16, (E)-3-{4-(1-imidazolylmethyl)phenyl}-2-propen-1-yl 2-methoxyethyl 1,4-dihydro-2,6-dimethyl-4-(3-nitrophenyl)pyridine-3,5-dicarboxylate] | 42.4% | 7.1% | 33.7% | 24.7%
